In patent publication US6833489B1, “Assays for modulators of prolyl-4-hydroxylase” (Wisconsin Alumni Research Foundation, priority 1999, dated 2004) one finds lethality of progeny data, which are given here for two compounds.

The experiment relates to C. elegans wild-type, dpy-18(ok162) or phy-2(ok177). The experiment is described as follows: Exposure of adult hermaphrodites to inhibitors, lethality of progeny. The format is in vivo, Caenorhabditis elegans. The following applies: regardless of genotype (wild-type. On the procedure: All wild-type C. elegans were from an N2 Bristol strain. Worms were cultured at 20° C. under standard conditions unless otherwise noted (J. E. Sulston and J. Hodgkin, Methods. In The Nematode Caenorhabditis elegans, pp. 587-606, 1988). LG II:unc-4(e120) was used as a marker for transgenic assays. LG III:dpy-18(ok162) is a deletion mutation isolated specifically as a knock-out of the prolyl 4-hydroxylase on chromosome III. […] 11 alleles (mutations in the dpy-18 gene) are known—dpy-18: e346, e364, e499, e1096, e1270, e1862, h662, s361, s1304, s1305, s1306. LG IV:unc-22(e66) is a mutation that can be used to recognize chromosome IV, and poh-1(ok-177) is a deletion mutation isolated specifically as a knock-out of the prolyl 4-hydroxylase gene on chromosome IV.
Small molecules that inhibit protein function can be used to confirm and extend results from genetic experiments. We tested two known prolyl 4-hydroxylase inhibitors for their effects on C. elegans. […] Both inhibitors limit prolyl 4-hydroxylase activity in cells, where their esters are hydrolyzed to form competitors of α-ketoglutarate. We also tested Inhibitor III (which is similar in structure to Inhibitor II) and Inhibitor IV (which is similar in structure to Inhibitor I). Neither Inhibitor III nor […] is known to limit prolyl 4-hydroxylase activity in cells. […]

Structures are written as SMILES.

For `CCOC(=O)c1ccnc(C(=O)OCC)c1` [Inhibitor I, 2,4-diethylpyridine dicarboxylate], the lethality of progeny entry (high level 2.7 μM, FIG. 2A) is on record as “all progeny died”.
Regarding `COC(=O)CNC(=O)C(=O)OC` [Inhibitor II, dimethyloxalylglycine], the lethality of progeny entry (high level 1.3 μM, FIG. 2B) is “all progeny died”.
